Drawing on ChEMBL document CHEMBL5136986, “DYRK1A inhibitors for disease therapy: Current status and perspectives” (Eur J Med Chem, 2022), this text covers IC50 for eight compounds.

Assay [1] concerns the target T1, Dual specificity tyrosine-phosphorylation-regulated kinase 1A (Homo sapiens, UniProt Q13627). Kind of assay: Inhibition of GST-fused recombinant human DYRK1A expressed in Escherichia coli using KKISGRLSPIMTEQ as substrate in presence of ATP.
Assay [2] in a line: Displacement of [gamma-33P]-ATP from GSK-3 derived from porcine brain using YRRAAVPPSPSLSRHSSPHQSpEDEEE as substrate incubated for 30 mins by scintillation counting analysis. Further details: species or system Sus scrofa.
Assay [3] addresses T1, Dual specificity tyrosine-phosphorylation-regulated kinase 1A. As to the kind of experiment: Inhibition of DYRK1A (unknown origin) using KKISGRLSPIMTEQ as substrate incubated for 30 mins in presence of ATP by ADP-Glo assay. A general note: In ADP-Glo the light output rises with the ADP produced.
Assay [4] shares this target. As to the kind of experiment: Inhibition of N-terminal 6His-tagged recombinant human DYRK1A ([…] residues) expressed in Escherichia coli BL21(DE3) using RARPGTPALRE as substrate incubated for 60 mins in presence of ATP/NADH by enzymatic assay.
Assay [5] has the same target. Kind of assay: Inhibition of DYRK1A (unknown origin).

As for `O=c1c2c(ccc3nc(-c4cnccn4)sc32)ncn1Cc1ccccc1`, the values for the IC50 in assay [1] and in assay [2] were 113 nM and 6000 nM, respectively. On to `O=C1CCCc2[nH]c3c(Cl)cccc3c21`, for which the IC50 (as a rule, the midpoint of a concentration-inhibition curve) in assay [3] came to 1600 nM. The same measure, in the same setting: the result for `O=C1c2c([nH]c3c(Cl)cccc23)CCC1N1CCCCC1` (centres undefined) reads over 10000 nM. On to `O=c1c2c(ccc3nc(-c4cccnc4)sc32)ncn1C1CC1`, for which the IC50 in assay [2] turned out to be 68 nM.

With `COc1c(CC=C(C)C)c(O)cc2oc(-c3ccc(O)cc3O)cc12` [LICOCOUMARONE], in assay [4], the IC50 worked out at 12600 nM.

For `Nc1ncc(-c2ccccc2F)nc1C(=O)Nc1cnccc1N1CCC(C(=O)O)CC1`, the IC50 in assay [5] was 243 nM. As for `O=c1c2c(ccc3nc(-c4cccnc4)sc32)ncn1Cc1ccccc1`, the IC50 in assay [2] is 3700 nM. `Nc1ncc(-c2ccccc2)nc1C(=O)Nc1cnccc1N1CCC(N)CC1`: the IC50 in assay [5] turned out to be 39 nM.
